Assay results: patent US20260263471A1, “Methods of Treating Myelofibrosis” (Kartos Therapeutics, Inc., priority 2024, published 2026)
“Also recorded” adds a separate entry of the source. Like-named read-outs stand apart in the source and are kept apart here.

Assays:
p21 = p21 expression in MF patient cells; format: cell-based, human; conditions: single agent alone
[1] = test system: treatment-naïve patients with MF; test: KRT-232-114 Phase 2 open-label study, navtemadlin monotherapy; format: in vivo, human; conditions: Rux-naïve MF, 240 mg Days 1-7 of 28-day cycle
Description: KRT-232-114 was a Phase 2 open-label study in which the safety and efficacy of navtemadlin monotherapy was assessed in treatment-naïve patients with MF. […] Median treatment duration was 183.0 days (range, 7-539).

[2] = test system: subjects with MF who were relapsed or refractory to JAK inhibitor treatment; test: KRT-232-101A Phase 2 open-label dose-finding study, navtemadlin monotherapy; format: in vivo, human; conditions: for TSS50 at Week 24 by MFSAF v4.0 (proportion of subjects) / SVR35 at Week 24 by Central Review (proportion of subjects): Rux-relapsed/refractory MF; for TSS50 at Week 24 by MFSAF v4.0 (proportion of subjects): n = 14; for SVR35 at Week 24 by Central Review (proportion of subjects): n = 14 with ruxolitinib washout ≥28 days; for circulating CD34+ cells: single agent
Description: KRT-232-101A is a Phase 2 open-label, dose-finding study designed to evaluate the safety and efficacy of navtemadlin in subjects with MF who were relapsed or refractory to JAK inhibitor treatment. Subjects were treated with one of four dosing schedules to determine the optimal Phase 2 dose and schedule: navtemadlin 120 mg QD for Days 1-7 on a […]; navtemadlin 240 mg QD for Days 1-7 on a 21-day cycle; navtemadlin 240 mg QD for Days 1-7 on a 28-day cycle; or navtemadlin 240 mg QD for Days 1-5 on a 28-day cycle.
Fourteen (14) of these subjects had ruxolitinib washout of ≥28 days prior to the baseline imaging assessment; efficacy results are reported for this subset of patients to control for the effects on the spleen after ruxolitinib discontinuation prior to Cycle 1 Day 1. Median treatment duration for all 32 subjects was 175.5 days (range, 2-469).

[3] = test system: xenograft models, tumor types harboring TP53WT; test: Non-clinical xenograft models; format: in vivo; conditions: various genetic backgrounds
Source text: (§1) Preclinical studies conducted with navtemadlin have yielded promising results in in vitro, ex vivo, and in vivo experiments, representing solid tumors and hematologic malignancies, including MF and acute myeloid leukemia secondary to an MPN.

p21 mRNA = test: p53 pathway activation, non-clinical pharmacology; conditions: direct transcriptional target of p53
Source text: as §1

[4] = Standard panel of assays: mutagenicity, genotoxicity, phototoxicity
Source text: Repeat-dose toxicity studies of up to 13 weeks duration in rats and monkeys, along with in vitro and in vivo safety pharmacology studies, have been completed for navtemadlin. […] Nonclinical embryofetal toxicity and fertility studies have not been conducted for navtemadlin due to the well documented requirement for p53/MDM2 control during embryonic and fetal development. Based on its mechanism of action, navtemadlin alters cell proliferation and is expected to result in adverse effects on embryofetal viability and development.

[5] = test system: JAKi-naive MF patients with a suboptimal response to ruxolitinib; test: Pooled published phase 3 data, suboptimal responders to ruxolitinib; format: in vivo, human
Source text: Data was pooled from published phase 3 studies for patients treated with ruxolitinib in the JAKi-naive MF setting (Verstovsek 2012; Mesa 2017; Pemmaraju 2023; Rampal 2023) to understand the natural history of patients with MF who achieve a suboptimal response to ruxolitinib, as defined in Study KRT-232-115 (e.g., a subject with an SVR>0% but <35% and a TSS reduction >0% but <50%) (FIG. 12).
FIG. 12 illustrates suboptimal spleen and symptom responders from the pooled phase 3 ruxolitinib data, including patients treated with ruxolitinib monotherapy with and without placebo. SVR data was obtained for 465 subjects from the three studies COMFORT-1, […]-1, and TRANSFORM-1 (Verstovsek 2012; Mesa 2017; Pemmaraju 2023). TSS data was obtained for 528 subjects from the three studies. Week-24 data used as a proxy to Week-18 suboptimal response assessment.

MF patients = conditions: cited from earlier work
[6] = test system: patients who discontinue ruxolitinib; conditions: after discontinuing ruxolitinib; 95% CI 8.0-22.7; cited from earlier work
[7] = test system: ruxolitinib-treated patients with myelofibrosis; conditions: cited from earlier work
[8] = KRT-232-101A, 240 mg Days 1-7 of 28-day cycle
[9] = KRT-232-101A, 240 mg Days 1-7 of 28-day cycle, listed as Navtemadlin
[10] = within the first 1-2 years of treatment

CC(C)[C@@H](CS(=O)(=O)C(C)C)N1C(=O)[C@@](C)(CC(=O)O)C[C@H](c2cccc(Cl)c2)[C@H]1c1ccc(Cl)cc1 [navtemadlin, 2-((3R,5R,6S)-5-(3-chlorophenyl)-6-(4-chlorophenyl)-1-((S)-1-(isopropylsulfonyl)-3-methylbutan-2-yl)-3-methyl-2-oxopiperidin-3-yl) acetic acid]
p21 expression (p21): markedly increased
SVR35 at Week 24 by Central Review (proportion of subjects) ([1]; n = 14): 14.3%
TSS50 at Week 24 by MFSAF v4.0 (proportion of subjects) ([1]; n = 14): 28.6%
SVR35 at Week 24 by Central Review (proportion of subjects) ([1]; n = 14, listed as Navtemadlin): 14.3% (2/14)
TSS50 at Week 24 by MFSAF v4.0 (proportion of subjects) ([1]; n = 14, listed as Navtemadlin): 28.6% (4/14)
TSS50 at Week 24 by MFSAF v4.0 (proportion of subjects) [2, 8]: 14.3%
TSS50 at Week 24 by MFSAF v4.0 (proportion of subjects) [2, 9]: 14.3% (2/14)
SVR35 at Week 24 by Central Review (proportion of subjects) [2, 8]: 14.3%
SVR35 at Week 24 by Central Review (proportion of subjects) [2, 9]: 14.3% (2/14)
median reduction in circulating CD34+ cells ([2]; baseline Cycle 1 Day 1 to Week 24, 240 mg Days 1-7 of 28-day cycle): 89.02%
subjects with improvement in fibrosis grade ([2]; baseline to Week 24, all evaluable subjects (12/44)): 27.3%
driver gene VAF ([2]; pharmacodynamic analysis, KRT-232-101A): VAF reductions
circulating CD34+ cells ([2]; KRT-232-101A): robustly decreased; also recorded: reduced
circulating CD34+ cells ([2]; KRT-232-101A, listed as Navtemadlin): decreased
tumor growth [3]: dose-dependent reduction
p21 mRNA (p21 mRNA): increases
mutagenicity / genotoxicity [4]: not mutagenic or genotoxic
potential for phototoxicity [4]: negligible potential

N#CC[C@H](C1CCCC1)n1cc(-c2ncnc3[nH]ccc23)cn1 [ruxolitinib, (R)-3-(4-(7H-pyrrolo[2,3-d]pyrimidin-4-yl)-1H-pyrazol-1-yl)-3-cyclopentylpropanenitrile]
p21 expression (p21): did not
mean SVR ([5]; suboptimal spleen responders, N=253, Week-24 data as proxy for Week 18): 18%
mean TSS reduction ([5]; suboptimal symptom responders (>0% but <50%)): 28.5%
time after initiating treatment by which benefit in SVR and TSS reduction is achieved, then plateau (MF patients; Verstovsek 2012): ≤ 12 weeks
MF patients with TSS reduction of greater than or equal to 50% (MF patients; ruxolitinib monotherapy): approximately 46%
responding patients achieving both SVR ≥35% and TSS ≥50% (MF patients; ruxolitinib monotherapy): 20-25%
effect on bone marrow fibrosis (MF patients; [10]): does not significantly affect
effect on variant allele frequency (VAF) of driver mutations (MF patients; [10]): does not significantly affect
median OS [6]: 13.2 months
hazard ratio for survival ([7]; patients with SVR≥25% to <35% versus SVR<10%, 95% CI 0.11-0.61): 0.25
reduction in risk of death ([7]; patients with SVR≥25% to <35% versus SVR<10%): 75%
hazard ratio for survival ([7]; patients with SVR≥35% to <50%, 95% CI 0.11-0.56): 0.24
